Where a name gives a salt, the structure may show the parent alone. Read-outs that look alike come from different tables or passages of the source.
Columns and labels:
SUDHL5 [1] = test: Induction of cytotoxicity, SUDHL5 (Assay 6); details: read-out: IC50 Cytotox SUDHL5 [M] (median), SUDHL5 cells, 5 h, CellTiter-Glo
Experimental: In principle, compounds that induce apoptosis will concomitantly induce cell cytotoxicity. Therefore, cytotoxicity assays were run in parallel in SUDHL5 and SUDHL10 cells.
The different cell lines were plated in culture medium (RPMI 1640 [GIBCO #22400-089] supplemented with 10% Fetal Bovine Serum) at a density of 3,300 cells in 30 μl/well in a sterile, solid black, flat bottom, polystyrene, TC-treated 384-well microplate (Corning #3571) using Multidrop Combi Reagent Dispenser. As a control, medium without cells was also added to the plate. Cells were incubated in a humidified incubator at 37° C. overnight. On the next day, the cells were treated with compounds (stock solution, 10 mM in DMSO) using the HP D300 Digital Dispenser in a concentration range of 3.3×10e-5 M (33 μM) to 5×10e-9 M (5 nM) in a single-dot curve with at least 16 dilutions and a DMSO concentration of 0.33%. Rim wells were excluded. The cells were incubated for 5 h hours in a humidified incubator at 37° C. After this incubation, 30 μl of CellTiter-Glo® Luminescent Cell Viability reagent (Promega, G7573) was added to each well using the Multidrop Combi Reagent Dispenser, followed by 15 min incubation on a shaker at room temperature. Finally, luminescence was read at 0.1 ms, with a gain of 3000 using the PHERAstar FS microplate reader (BMG Labtech).
The Bella DRC Master Sheet was used to calculate IC50s, with fixed CI=0 and C0=1.

SUDHL5 [2] = test: Induction of caspase-3/7 activity, SUDHL5 (Assay 4); format: cell-based
Experimental: (§1) Induction of Caspase-3/7 Activity upon Treatment of Cells with Selected Compounds
(§2) The BH3-domain of MCL-1 sequesters pro-apoptotic proteins, thereby inhibiting apoptosis. In contrast, MCL-1 inhibitors are expected to antagonize this effect leading to an increase in apoptosis, which can be determined by measuring the activity of caspase-3/7.
(§3) The activity of caspase-3/7 was determined in DLBCL (Diffuse large B-cell lymphoma) cell lines (SUDHL5 and SUDHL10) upon treatment with different compounds, using the Caspase-Glo® 3/7 reagent from Promega (G8092).
(§4) Rim wells were excluded. The cells were incubated for 3 h hours in a humidified incubator at 37° C.
(§5) For the evaluation of the results, the background measured with “medium-only” was subtracted from all other values. […] The Bella DRC Master Sheet was used to calculate EC50s, with fixed C0=1 and Cl=plateau/max induction for the reference compound.

AMO-1 = test: Antiproliferation assay AMO-1 (Assay 7); format: cell-based; details: AMO-1 cells, CellTiter-Glo, single determinations, read-out: IC50 Antiproli AMO-1
Experimental: (§6) Assessment of the Anti-Proliferative Effect of Compounds in Different Cell Lines
(§7) The impact of compounds on the proliferation of different cell lines was assessed using the CellTiter-Glo® Luminescent Cell Viability reagent from Promega (G7573).
(§8) In parallel, cells were plated in a reference (day 0) plate for time zero determination.
(§9) Rim wells were excluded. The cells were incubated for 72 h hours in a humidified incubator at 37° C. The day 0 plate was measured by adding 30 μL/well of CTG solution (CellTiter-Glo® Luminescent Cell Viability reagent, Promega G7573) to time zero wells in the reference plate followed by a 10 minutes incubation and luminescence reading at 0.1 ms. using the PHERAstar FS microplate reader (BMG Labtech).
(§10) After 72 h incubation, the treated plates were measured in the same way as the day 0 plate mentioned above.

SUDHL5 [3] = test: Antiproliferation assay SUDHL5 (Assay 7); format: cell-based
Experimental: as §6, §7, §8, §9, §10

SUDHL10 [4] = test: Induction of caspase-3/7 activity, SUDHL10 (Assay 4); format: cell-based
Experimental: as §1, §2, §3, §4, §5

SUDHL10 [5] = test: Induction of cytotoxicity, SUDHL10 (Assay 6); details: read-out: IC50 Cytotox SUDHL10 [M] (median), SUDHL10 cells, 5 h, CellTiter-Glo
MCL-1 = MCL-1 (Homo sapiens (Human), UniProt Q07820, K194A/K197A/R201A); test: Protein-protein interaction assay MCL-1/Noxa BH3 peptide (MCL-1 assay), TR-FRET; format: binding; details: MCL-1/Noxa BH3 peptide TR-FRET; median
MCL-1, sequence (Q07820 whole entry K194A/K197A/R201A, looked up): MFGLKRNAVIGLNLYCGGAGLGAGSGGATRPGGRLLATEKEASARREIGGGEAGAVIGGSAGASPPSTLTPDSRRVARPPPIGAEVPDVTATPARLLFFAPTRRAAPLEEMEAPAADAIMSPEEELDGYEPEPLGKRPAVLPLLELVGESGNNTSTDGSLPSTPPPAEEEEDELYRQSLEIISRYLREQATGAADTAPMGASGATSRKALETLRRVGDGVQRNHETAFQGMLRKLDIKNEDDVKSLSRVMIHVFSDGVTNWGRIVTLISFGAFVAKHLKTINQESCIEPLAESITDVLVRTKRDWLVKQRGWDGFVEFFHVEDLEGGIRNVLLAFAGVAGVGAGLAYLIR
Experimental: Protein-Protein Interaction Assay: MCL-1/Noxa BH3 Peptide (MCL-1 Assay)
The dose-dependent inhibition by the compounds described in this invention of the interaction between MCL-1 and the BH3 domain of Noxa (both human) was determined using a steady state binding competition assay with time-resolved fluorescence energy transfer (TR-FRET) readout. For that purpose MCL-1 (amino acids 173-321, N-terminal fused to Maltose Binding Protein (MBP) SEQ ID 1)) and a synthetic Noxa BH3-derived peptide of sequence Biotin-PEG2-PEG2-PAELEVE-Nva-ATQLRRFGDKLNFRQKLL-amide (SEQ ID 2) served as protein receptor and tracer ligand respectively. The MBP-MCL-1 was purchased from Beryllium (Bedford, Mass., USA). The expression and purification of this protein construct has been described elsewhere (DOI:10.1371/journal.pone.0125010). The Noxa BH3-derived peptide can be obtained from e.g. Biosyntan (Berlin, Germany).
In the assay 11 different concentrations of each compound (0.1 nM, 0.33 nM, 1.1 nM, 3.8 nM, 13 nM, 44 nM, 0.15 μM, 0.51 μM, 1.7 μM, 5.9 μM and 20 μM) were typically measured as duplicates in the same microtiter plate. For that, 100-fold concentrated DMSO solutions were prepared by serial dilutions (1:3.4) of a 2 mM stock solution in a clear, 384-well microtiter plate (Greiner Bio-One, Frickenhausen, Germany). From there, 50 nl were transferred in a dark test plate (Greiner Bio-One, Frickenhausen, Germany). The assay was initiated by addition of 2 μl of a 2,5-fold concentrated MBP-MCL-1 solution (usually for a 1 nM end concentration in 5 μl reaction volume) in aqueous assay buffer [50 mM Tris/HCl pH 7, 100 mM sodium chloride (NaCl), 50 mM potassium fluoride (KF), 0.005% Tween-20, 2 mM DTT, 0.1% bovine gamma globulin (BGG)] to the compounds in the assay plate. This was followed by a 10-minute incubation step at 22° C. for pre-equilibration of the putative complex between MBP-MCL-1 and the compounds. After that, 3 μl of a 1.67-fold concentrated solution (in assay buffer) consisting of Noxa BH3-derived peptide (1 nM end concentration) and TR-FRET detection reagents [1.67 nM anti-MBP-Eu cryptate and 1.67 nM streptavidin-XL665 (both from Cisbio Bioassays, Codolet, France)], were added.
The mixture was incubated in the dark for one hour at 22° C. and then overnight at 4° C. The formation of MCL-1/Noxa complexes was determined by measuring the resonance energy transfer of the anti-MBP-Eu-cryptate antibody to the streptavidin-XL665 present in the reaction. For that purpose, the fluorescence emission at 620 nm and 665 nm after excitation at 330-350 nm was measured in a TR-FRET measuring instrument, for instance a Rubystar or a Pherastar (both from BMG Lab Technologies, Offenburg, Germany) or a Viewlux (Perkin-Elmer). The ratio of the emission at 665 nm and at 622 nm was used as indicator of the amount of MCL-1/NOXA complexes present.
The resulting data (ratio) were normalized, taking 0% inhibition as the mean value of control measurements (usually 32 data points) where all reagents were included. In this case 50 nl DMSO were used instead of compounds. A 100% inhibition corresponded to the mean value of control measurements (usually 32 data points) where all reagents except MCL-1 were included. IC50 values were determined by regression analysis based on a 4 parameter equation (minimum, maximum, IC50, Hill; Y=Max+(Min−Max)/(1+(X/IC50)^Hill) using the Screener Software (Genedata).

MV-4-11 = test: Antiproliferation assay MV-4-11 (Assay 7); format: cell-based; details: MV-4-11 cells, CellTiter-Glo, single determinations, read-out: IC50 Antiproli MV-4-11
Experimental: as §6, §7, §8, §9, §10

A2780 = test: Antiproliferation assay A2780 (Assay 7); format: cell-based; details: A2780 cells, CellTiter-Glo, single determinations, read-out: IC50 Antiproli A2780
Experimental: as §6, §7, §8, §9, §10

[6] = SUDHL5 cells, 3 h, Caspase-Glo 3/7; median
[7] = SUDHL5 cells, 72 h, CellTiter-Glo; median; read-out: IC50 Antiproli SUDHL5 [M] (median)
[8] = SUDHL10 cells, 3 h, Caspase-Glo 3/7; median
[9] = 72 h, trifluoroacetic acid salt

Row | SMILES | IC50 (MCL-1) [µM] | IC50 (MV-4-11; 72 h) [µM] | EC50 (SUDHL5 [2]; [6]) [µM] | IC50 (SUDHL5 [3]; [7]) [M] | EC50 (SUDHL10 [4]; [8]) [µM] | IC50 (SUDHL5 [1]; Homo sapiens, SU-DHL-5, 5 h) [M] | IC50 (AMO-1; 72 h) [µM] | IC50 (SUDHL10 [5]; Homo sapiens, SU-DHL10, 5 h) [M] | IC50 (MV-4-11; Homo sapiens, MV4-11, 72 h) [µM] | IC50 (SUDHL5 [1]) [M] | IC50 (SUDHL10 [5]) [M] | other results
1 | Cc1c2c(nn1C)CNCCCCn1c(C(=O)O)c(CCCOc3cccc4ccccc34)c3ccc(F)c-2c31 (racemic) [Example 47, (rac)-4-fluoro-2,3-dimethyl-7-[3-(1-naphthyloxy)propyl]-10,11,12,13,14,15-hexahydro-2H-pyrazolo[3′,4′:8,9][1,6]diazacycloundecino[10,11,1-hi]indole-8-carboxylic acid trifluoroacetic acid salt] | 0.00082 | – | – | – | – | 2.2e-06 | – | 5.6e-06 | 1.02 | – | – | EC50 (SUDHL5 [2]; Homo sapiens, SU-DHL-5; SUDHL5 cells, 3 h, Caspase-Glo 3/7; median): 1.4 µM; IC50 (A2780; [9]): 18.9 µM; IC50 (A2780; Homo sapiens, A2780, 72 h): 20.9 µM; IC50 (SUDHL5 [3]; Homo sapiens, SU-DHL-5; SUDHL5 cells, 72 h, CellTiter-Glo; median; read-out: IC50 Antiproli SUDHL5 [M] (median)): 2.1e-06 M; EC50 (SUDHL10 [4]; Homo sapiens, SU-DHL10; SUDHL10 cells, 3 h, Caspase-Glo 3/7; median): 5 µM; IC50 (MV-4-11; [9]): 1.32 µM
2 | CCc1nn(C)c2c1-c1c(F)ccc3c(CCCOc4ccc(F)c5ccccc45)c(C(=O)O)n(c13)CCCCOC2 (single isomer, unassigned; enantiomer 2) [Example 43, 3-ethyl-4-fluoro-7-{3-[(4-fluoronaphthalen-1-yl)oxy]propyl}-1-methyl-1,10,11,12,13,15-hexahydropyrazolo[4′,3′:9,10][1,6]oxazacycloundecino[8,7,6-hi]indole-8-carboxylic acid (enantiomer 2)] | 0.11 | 12.5 | > 33 | 1.5e-05 | > 33 | – | > 33 | – | – | > 3.3e-05 | > 3.3e-05 | –
3 | CCc1c2c(nn1C)COCCCCn1c(C(=O)O)c(CCCOc3ccc(F)c4ccccc34)c3ccc(F)c-2c31 (single isomer, unassigned; enantiomer 2) [Example 28, 3-ethyl-4-fluoro-7-{3-[(4-fluoronaphthalen-1-yl)oxy]propyl}-2-methyl-2,10,11,12,13,15-hexahydropyrazolo[4′,3′:9,10][1,6]oxazacycloundecino[8,7,6-hi]indole-8-carboxylic acid-N-ethylethanamine salt (enantiomer 2)] | 0.065 | 13.8 | > 33 | 1.2e-05 | > 33 | – | > 33 | – | – | 1.8e-05 | > 3.3e-05 | –

Continued by falling IC50 (MCL-1), values first:

Row | IC50 (MCL-1) [µM] | IC50 (MV-4-11; 72 h) [µM] | EC50 (SUDHL5 [2]; [6]) [µM] | IC50 (SUDHL5 [3]; [7]) [M] | EC50 (SUDHL10 [4]; [8]) [µM] | SMILES | IC50 (SUDHL5 [1]; Homo sapiens, SU-DHL-5, 5 h) [M] | IC50 (AMO-1; 72 h) [µM] | IC50 (SUDHL10 [5]; Homo sapiens, SU-DHL10, 5 h) [M] | IC50 (MV-4-11; Homo sapiens, MV4-11, 72 h) [µM] | IC50 (SUDHL5 [1]) [M] | IC50 (SUDHL10 [5]) [M] | other results
4 | 0.065 | – | > 33 | > 3.3e-05 | – | Cc1c2c(nn1C)COCCCCn1c(C(=O)O)c(CCCOc3cccc4ccccc34)c3ccc(F)c-2c31 (single isomer, unassigned; enantiomer 2) [Example 4, 4-fluoro-2,3-dimethyl-7-[3-(naphthalen-1-yloxy)propyl]-2,10,11,12,13,15-hexahydropyrazolo-[4′,3′:9,10][1,6]oxazacycloundecino[8,7,6-hi]indole-8-carboxylic acid-N-ethylethanamine salt (enantiomer 2)] | – | – | – | – | > 3.3e-05 | – | IC50 (A2780; 72 h, listed as 04): > 33 µM; IC50 (MV-4-11; 72 h, listed as 04): > 33 µM
5 | 0.06 | 20.8 | > 33 | 1.1e-05 | > 33 | Cc1c2c(nn1C)COCCCCn1c(C(=O)O)c(CCCOc3ccc(F)c4ccccc34)c3ccc(F)c-2c31 (single isomer, unassigned; enantiomer 2) [Example 17, 4-fluoro-7-{3-[(4-fluoronaphthalen-1-yl)oxy]propyl}-2,3-dimethyl-2,10,11,12,13,15-hexahydro-pyrazolo[4′,3′:9,10][1,6]oxazacycloundecino[8,7,6-hi]indole-8-carboxylic acid (enantiomer 2)] | – | > 33 | – | – | > 3.3e-05 | > 3.3e-05 | –
6 | 0.002 | 15 | – | – | – | CCc1nn(C)c2c1-c1c(F)ccc3c(CCCOc4ccc(F)c5ccccc45)c(C(=O)O)n(c13)CCCCOC2 (racemic) [Example 41, (rac)-12-ethyl-13-fluoro-1-(3-((4-fluoronaphthalen-1-yl)oxy)propyl)-10-methyl-4,5,6,7,9,10-hexahydropyrazolo[4′,3′:9,10][1]oxa[6]azacycloundecino[8,7,6-hi]indole-2-carboxylic acid] | 3e-06 | 12.8 | 7.1e-06 | 11 | – | – | EC50 (SUDHL5 [2]; Homo sapiens, SU-DHL-5, 3 h, SUDHL5 cells, Caspase-Glo 3/7, median): 2.2 µM; IC50 (AMO-1; Homo sapiens, AMO1, 72 h): 15.2 µM; IC50 (SUDHL5 [3]; Homo sapiens, SU-DHL-5, 72 h, SUDHL5 cells, CellTiter-Glo, median, read-out: IC50 Antiproli SUDHL5 [M] (median)): 2e-06 M; EC50 (SUDHL10 [4]; Homo sapiens, SU-DHL10, 3 h, SUDHL10 cells, Caspase-Glo 3/7, median): 14 µM

Source: patent publication US11286263B2, “Macrocyclic fluorine substituted indole derivatives” (The Broad Institute, Inc., priority 2017, dated 2022)
